Consider one compound from the NIST ThermoML archive (doi:10.1016/j.fluid.2018.05.005).

The conditions of data set [1]: Crystal; DSC.
A short description of data set [2]: Molar enthalpy of transition or fusion. The note with it: Crystal; DSC.

Numbers after ± are expanded uncertainties.

In the case of `CC1(C)CCC2=C(O1)c1ccccc1C(=O)C2=O` [3,4-dihydro-2,2-dimethyl-2H-naphtho[1,2-b]pyran-5,6-dione], the Triple point temperature in data set [1] was determined as 428.99 ± 1.9 K. Moreover, the “Molar enthalpy of transition or fusion” value in data set [2] stood at 5.86 ± 0.263 kcal/mol.
